The results in this text go back to patent US11078170B2 (Assembly Biosciences, Inc., priority 2017, dated 2021).

Some results are limits rather than exact numbers.

In the test the test system is HBV viral production from HepAD38 cells. In words: Activity of test compounds on viral production from HepAD38 cells (viral load by qPCR of HBV core sequence in supernatant). The format is cell-based. The note with it: Hepatitis B virus, 120 h, 5 days incubation, HBV DNA in supernatant by qPCR, top concentration 10 μM, read-out: Viral Load EC50 Activity range. As to the method:
Assay Measuring Activity of Test Compounds on Viral Production from HepAD38 Cells
HepAD38 cells grown in a T-150 flask (Corning, cat #: 430825) with Growth Medium (DMEM/F12 (1:1) (Hyclone, cat #: SH30023.02), 1×Pen/Strep (Invitrogen, cat #: 15140-122), 10% FBS (Tissue Culture Biologics, cat #: 101), 250 μg/mL G418 (Alfa Aesar, cat #: J62671), 1 μg/mL Tetracycline (Teknova, cat #: T3320)) were detached with 0.25% trypsin-EDTA (Invitrogen, cat #: 25200-056). Tetracycline-free treatment medium (15 mL DMEM/F12 (1:1) 1× Pen/step, with 2% FBS, Tet-system approved (Clontech, cat #: 631106) were then added to mix, transferred into a 50 ml conical tube (Falcon, cat #: 21008-918) and spun at 1300 rpm for 5 min. Pelleted cells were then re-suspended/washed with 50 mL of 1×DPBS (Invitrogen, cat #: 14190-136) 2 times and 50 mL treatment medium twice. HepAD38 cells were then re-suspended with 10 mL of treatment medium, syringed and counted. Wells of 96-well clear bottom TC plate (Corning, cat #: 3904) were seeded at 50,000 cells/well in 180 μL of treatment medium, and 20 μL of either 10% DMSO (Sigma, cat #: D4540) as controls or a 10× solution of test compounds in 10% DMSO in treatment media was added for a final compound concentration starting at 10 μM, and plates were incubated in 5% CO2 incubator at 37° C. for 5 days.
Subsequently viral load production was assayed by quantitative PCR (qPCR) of the HBV core sequence. PCR reaction mixture containing forward primers HBV-f 5′-CTGTGCCTTGGGTGGCTTT-3′, which is SEQ ID NO 1, (IDT DNA), Reverse primers HBV-r 5′-[…]-3′, which is SEQ ID NO 2 (IDT DNA), Fluorescent TaqMan™ Probes HBV-probe 5′-FAM/AGCTCCAAA/ZEN/[…]/3IABkFQ-3′ (IDT DNA), which is SEQ ID NO 3, 10 μL/well of PerfeCTa® qPCR ToughMix® (Quanta Biosciences, Cat #: 95114-05K), and 6 µL/well of DEPC water (Alfa Aesar, cat #: J62087) was prepared. Four μL of supernatant was added to 16 μL of the reaction mixture in a qPCR plate (Applied Biosytems, Cat #: 4309849), sealed with a film (Applied Biosystems, Cat #: 4311971), centrifuged for a few seconds, and subsequently run on an Applied Biosystems VIIA7. The PCR mixture was incubated at 45° C. for 5 min, then 95° C. for 10 min, followed by 40 cycles of 10 seconds at 95° C. and 20 seconds at 60° C. Viral load was quantified against known HBV DNA standards by using ViiA™ 7 Software. Viral load in the supernatant from wells with treated cells were compared against viral load in supernatant from DMSO control wells (≥3 per plate). Cell viability assay was performed with CellTiter-Glo Luminescent Cell Viability Assay (Promega, cat #: G7573) with modification. Mixed appropriate amount of CellTiter-Glo (CTG) 1×DPBS in a 1:1 ratio, added 100 uL of the mixture to each well followed completely removal of all supernatant in each well without touching cell surface. Incubated the plate at room temperature for 10 min on an orbital shaker, and then read the plate with a plate reader (TECAN M1000 or Envision). EC50 or CC50 values were calculated through curve-fitting of the four-parameter nonlinear-logistic-regression model (GraphPad Prism or Dotmatics). CC50 values were all >10 μM.

`CN1[C@@H](C(=O)Nc2ccc(F)c(Cl)c2)C[C@@H](c2cc(-c3cn[nH]c3)cs2)NS1(=O)=O` [HBV-CSU-245-ISO-II]: the concentration giving a half-maximal response (EC50) (usually the midpoint of the concentration-response curve) was < 1000 nM.

Consider `CN1C(C(=O)Nc2ccc(F)c(Cl)c2)CC(c2nccs2)NS1(=O)=O` (racemic) [HBV-CSU-027, Cis-N-(3-chloro-4-fluorophenyl)-2-methyl-5-(thiazol-2-yl)-1,2,6-thiadiazinane-3-carboxamide 1,1-dioxide], for which the EC50 is < 1000 nM.

Consider `CN1[C@@H](C(=O)Nc2ccc(F)c(Cl)c2)C[C@@H](c2ncc(-c3cncn3C)s2)NS1(=O)=O` [HBV-CSU-277-ISO-II, Cis-N-(3-Chloro-4-fluorophenyl)-2-methyl-5-(5-(1-methyl-1H-imidazol-5-yl)thiazol-2-yl)-1,2,6-thiadiazinane-3-carboxamide 1,1-dioxide], for which the 50% effective concentration (EC50) is > 5000 nM.

`CN1[C@H](C(=O)Nc2ccc(F)c(Cl)c2)C[C@@H](c2ccc(Br)s2)NS1(=O)=O` [HBV-CSU-114-Trans-ISO-II, (3S,5S)-5-(5-bromothiophen-2-yl)-N-(3-chloro-4-fluorophenyl)-2-methyl-1,2,6-thiadiazinane-3-carboxamide 1,1-dioxide]: the concentration giving a half-maximal response (EC50) was in the range of 1000 to 5000 nM.

On to `[2H]C1[C@]([2H])(c2ncc(-c3cn(C)cn3)s2)NS(=O)(=O)N(C([2H])([2H])[2H])[C@]1([2H])C(=O)Nc1ccc(F)c(Cl)c1` (stereo in doubt) [HBV-CSU-340-ISO-I, Cis-N-(3-Chloro-4-fluorophenyl)-2-(methyl-d3)-5-(5-(1-methyl-1H-imidazol-4-yl)thiazol-2-yl)-1,2,6-thiadiazinane-3,4,5-d3-3-carboxamide 1,1-dioxide], for which the concentration for a half-maximal effect (EC50) is < 1000 nM.

For the compound `CCn1cc(-c2ccc([C@@H]3C[C@H](C(=O)Nc4ccc(F)c(Cl)c4)N(C)S(=O)(=O)N3)s2)cn1` [HBV-CSU-291-ISO-II, Cis-N-(3-chloro-4-fluorophenyl)-5-(5-(1-ethyl-1H-pyrazol-4-yl)thiophen-2-yl)-2-methyl-1,2,6-thiadiazinane-3-carboxamide 1,1-dioxide], the EC50 was > 5000 nM.

Take `CN1[C@H](C(=O)Nc2ccc(F)c(Cl)c2)C[C@H](c2ccc(-c3cccnc3)s2)NS1(=O)=O` [HBV-CSU-159-ISO-II, Cis-N-(3-chloro-4-fluorophenyl)-2-methyl-5-(5-(pyridin-3-yl)thiophen-2-yl)-1,2,6-thiadiazinane-3-carboxamide 1,1-dioxide]: the EC50 is < 1000 nM.

Turning to `CN1C(C(=O)Nc2ccc(F)c(Cl)c2)CC(c2cc(-c3cnn(C(F)(F)F)c3)cs2)NS1(=O)=O` (racemic) [HBV-CSU-325, Cis-N-(3-Chloro-4-fluorophenyl)-2-methyl-5-(4-(1-(trifluoromethyl)-1H-pyrazol-4-yl)thiophen-2-yl)-1,2,6-thiadiazinane-3-carboxamide 1,1-dioxide], the 50% effective concentration (EC50) was < 1000 nM.

As for `CN1C(C(=O)Nc2ccc(F)c(Cl)c2)CC(c2cc(-c3ccc(Br)c(F)c3)cs2)NS1(=O)=O` (racemic) [HBV-CSU-165, Cis-N-(3-chloro-4-fluorophenyl)-5-(4-(4-bromo-3-fluorophenyl)thiophen-2-yl)-2-methyl-1,2,6-thiadiazinane-3-carboxamide 1,1-dioxide], the 50% effective concentration (EC50) is 1000 to 5000 nM.

Turning to `[2H]C1[C@]([2H])(C(=O)Nc2ccc(F)c(Cl)c2)N(C([2H])([2H])[2H])S(=O)(=O)N[C@]1([2H])c1ccc(-c2cnn(C([2H])([2H])[2H])c2)s1` (stereo in doubt) [HBV-CSU-379-ISO-II, Cis-N-(3-Chloro-4-fluorophenyl)-2-(methyl-d3)-5-(5-(1-(methyl-d3)-1H-pyrazol-4-yl)thiophen-2-yl)-1,2,6-thiadiazinane-3,4,5-d3-3-carboxamide 1,1-dioxide], the concentration for a half-maximal effect (EC50) was < 1000 nM.

In the case of `CN1[C@@H](C(=O)Nc2ccc(F)c(Cl)c2)C[C@@H](c2ncc(-c3ccnn3C)s2)NS1(=O)=O` [HBV-CSU-281-ISO-II, Cis-N-(3-Chloro-4-fluorophenyl)-2-methyl-5-(5-(1-methyl-1H-pyrazol-5-yl)thiazol-2-yl)-1,2,6-thiadiazinane-3-carboxamide 1,1-dioxide], the half-maximal effective concentration (EC50) fell in the range of 1000 to 5000 nM.

As for `CN1C(C(=O)Nc2ccc(F)c(Cl)c2)CC(c2ccc(C(=O)O)cc2)NS1(=O)=O` (racemic) [HBV-CSU-218, Cis-4-(5-((3-Chloro-4-fluorophenyl)carbamoyl)-6-methyl-1,1-dioxido-1,2,6-thiadiazinan-3-yl)benzoic acid], the concentration giving a half-maximal response (EC50) lay in the range of 1000 to 5000 nM.

Regarding `CN1[C@H](C(=O)Nc2ccc(F)c(Cl)c2)C[C@H](c2ccc(-c3cn(C)cn3)s2)NS1(=O)=O` [HBV-CSU-266-ISO-I, (3S,5R)-N-(3-chloro-4-fluorophenyl)-2-methyl-5-(5-(1-methyl-1H-imidazol-4-yl)thiophen-2-yl)-1,2,6-thiadiazinane-3-carboxamide 1,1-dioxide], the EC50 is < 1000 nM.

With `CN1[C@H](C(=O)Nc2ccc(F)c(Cl)c2)C[C@@H](c2ccc(Br)s2)NS1(=O)=O` (racemic) [HBV-CSU-114-Trans (Rac), Trans-5-(5-bromothiophen-2-yl)-N-(3-chloro-4-fluorophenyl)-2-methyl-1,2,6-thiadiazinane-3-carboxamide 1,1-dioxide], the EC50 is > 5000 nM.

Turning to `CN1[C@H](C(=O)Nc2cccc(Cl)c2)C[C@H](c2cccs2)NS1(=O)=O` [HBV-CSU-010-ISO-I, Cis-N-(3-chlorophenyl)-2-methyl-5-(thiophen-2-yl)-1,2,6-thiadiazinane-3-carboxamide 1,1-dioxide], the concentration giving a half-maximal response (EC50) is < 1000 nM.

As for `CN1[C@H](C(=O)Nc2ccc(F)c(Cl)c2)C[C@H](c2ccc(-c3ncn(C)n3)s2)NS1(=O)=O` [HBV-CSU-322-ISO-I, Cis-N-(3-Chloro-4-fluorophenyl)-2-methyl-5-(5-(1-methyl-1H-1,2,4-triazol-3-yl)thiophen-2-yl)-1,2,6-thiadiazinane-3-carboxamide 1,1-dioxide], the EC50 is < 1000 nM.

Consider `CN1C(C(=O)Nc2ccc(F)c(Cl)c2)CC(c2cc(-c3cccs3)cs2)NS1(=O)=O` (stereo not shown) [HBV-CSU-170], for which the EC50 was < 1000 nM.

With `O=C(Nc1ccc(F)c(Cl)c1)C1CC(c2nccs2)NS(=O)(=O)N1CCOCc1ccccc1` (racemic) [HBV-CSU-095, Cis-2-(2-(benzyloxy)ethyl)-N-(3-chloro-4-fluorophenyl)-5-(thiazol-2-yl)-1,2,6-thiadiazinane-3-carboxamide 1,1-dioxide], the concentration for a half-maximal effect (EC50) fell in the range of 1000 to 5000 nM.

For `Cc1nn(C)c(C)c1-c1ccc([C@H]2C[C@@H](C(=O)Nc3ccc(F)c(Cl)c3)N(C)S(=O)(=O)N2)s1` [HBV-CSU-314-ISO-I, Cis-N-(3-chloro-4-fluorophenyl)-2-methyl-5-(5-(1,3,5-trimethyl-1H-pyrazol-4-yl)thiophen-2-yl)-1,2,6-thiadiazinane-3-carboxamide 1,1-dioxide], the EC50 is < 1000 nM.

Take `C#CCCN1[C@@H](C(=O)Nc2ccc(F)c(Cl)c2)C[C@@H](c2nccs2)NS1(=O)=O` [HBV-CSU-090-ISO-II, Cis-2-(But-3-yn-1-yl)-N-(3-chloro-4-fluorophenyl)-5-(thiazol-2-yl)-1,2,6-thiadiazinane-3-carboxamide 1,1-dioxide]: the concentration for a half-maximal effect (EC50) was > 5000 nM.

In the case of `CN1[C@H](C(=O)Nc2cccc(C#N)c2)C[C@H](c2cccs2)NS1(=O)=O` [HBV-CSU-020-ISO-I, Cis-N-(3-cyanophenyl)-2-methyl-5-(thiophen-2-yl)-1,2,6-thiadiazinane-3-carboxamide 1,1-dioxide], the half-maximal effective concentration (EC50) is < 1000 nM.

With `CN(C)CCN1C(C(=O)Nc2ccc(F)c(Cl)c2)CC(c2nccs2)NS1(=O)=O` (racemic) [HBV-CSU-074, Cis-N-(3-Chloro-4-fluorophenyl)-2-(2-(dimethylamino)ethyl)-5-(thiazol-2-yl)-1,2,6-thiadiazinane-3-carboxamide 1,1-dioxide], the concentration for a half-maximal effect (EC50) was > 5000 nM.
